Data from patent publication US9707233B2, “Heterocyclylamines as PI3K inhibitors” (Incyte Corporation, priority 2011, dated 2017).
Structures can show the parent of a compound that is named as a salt.

Target: PI3Kδ (p110δ/p85α) (Homo sapiens (Human), UniProt O00329)
Assay: PI3Kδ scintillation proximity assay (Example A3)
Assay type: biochemical
Details: 20 μM ATP, 20 μM PIP2, 4 nM PI3Kδ; read-out: PI3Kδ SPA IC50
Method: [γ-^33P]ATP (10 mCi/mL) was purchased from Perkin-Elmer (Waltham, Mass.). […] PI3Kδ (p110δ/p85α) was purchased from Millipore (Bedford, Mass.). ATP, MgCl2, DTT, EDTA, MOPS and CHAPS were purchased from Sigma-Aldrich (St. Louis, Mo.). Wheat Germ Agglutinin (WGA) YSi SPA Scintillation Beads was purchased from GE healthcare life sciences (Piscataway, N.J.).
The kinase reaction was conducted in polystyrene 384-well matrix white plate from Thermo Fisher Scientific in a final volume of 25 μL. Inhibitors were first diluted serially in DMSO and added to the plate wells before the addition of other reaction components. The final concentration of DMSO in the assay was 0.5%. The PI3K assays were carried out at room temperature in 20 mM MOPS, pH 6.7, 10 mM MgCl2, 5 mM DTT and CHAPS 0.03%. Reactions were initiated by the addition of ATP, the final reaction mixture consisted of 20 μM PIP2, 20 μM ATP, 0.2 μCi [γ-^33P]ATP, 4 nM PI3Kδ. […] 25 mM EDTA, 400 μM ATP. The final concentration of SPA beads was 1.0 mg/mL. After the plate sealing, plates were shaken overnight at room temperature and centrifuged at 1800 rpm for 10 minutes, the radioactivity of the product was determined by scintillation counting on Topcount (Perkin-Elmer). IC50 determination was performed by fitting the curve of percent control activity versus the log of the inhibitor concentration using the GraphPad Prism 3.0 software.

PI3Kδ (p110δ/p85α), sequence (O00329 whole entry): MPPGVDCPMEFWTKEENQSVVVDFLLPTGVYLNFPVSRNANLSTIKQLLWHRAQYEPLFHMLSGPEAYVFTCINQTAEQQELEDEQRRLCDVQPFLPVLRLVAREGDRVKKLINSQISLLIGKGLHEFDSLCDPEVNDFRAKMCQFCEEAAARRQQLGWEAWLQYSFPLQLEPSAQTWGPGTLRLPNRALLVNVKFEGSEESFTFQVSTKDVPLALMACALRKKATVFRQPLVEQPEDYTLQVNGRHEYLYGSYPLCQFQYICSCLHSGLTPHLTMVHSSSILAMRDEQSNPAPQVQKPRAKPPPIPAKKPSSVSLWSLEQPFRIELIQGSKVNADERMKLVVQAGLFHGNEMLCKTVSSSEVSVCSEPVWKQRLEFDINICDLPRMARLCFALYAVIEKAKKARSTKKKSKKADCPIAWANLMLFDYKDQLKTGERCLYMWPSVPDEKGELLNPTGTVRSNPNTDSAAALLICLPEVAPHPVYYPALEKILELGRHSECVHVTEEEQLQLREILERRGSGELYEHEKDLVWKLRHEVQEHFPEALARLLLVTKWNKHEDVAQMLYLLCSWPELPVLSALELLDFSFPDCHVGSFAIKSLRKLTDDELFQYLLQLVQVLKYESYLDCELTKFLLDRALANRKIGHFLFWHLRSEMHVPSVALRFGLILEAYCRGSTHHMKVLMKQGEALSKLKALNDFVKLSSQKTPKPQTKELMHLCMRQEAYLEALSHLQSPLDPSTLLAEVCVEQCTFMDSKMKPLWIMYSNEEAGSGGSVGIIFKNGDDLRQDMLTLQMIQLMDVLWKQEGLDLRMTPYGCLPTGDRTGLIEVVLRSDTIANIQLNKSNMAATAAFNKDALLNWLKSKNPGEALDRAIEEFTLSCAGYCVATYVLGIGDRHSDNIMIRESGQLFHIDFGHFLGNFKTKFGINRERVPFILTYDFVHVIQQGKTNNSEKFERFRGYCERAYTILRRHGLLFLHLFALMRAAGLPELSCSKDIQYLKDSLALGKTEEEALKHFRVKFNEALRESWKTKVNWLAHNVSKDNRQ
PI3Kδ (p110δ/p85α), sequence (P27986 whole entry partner): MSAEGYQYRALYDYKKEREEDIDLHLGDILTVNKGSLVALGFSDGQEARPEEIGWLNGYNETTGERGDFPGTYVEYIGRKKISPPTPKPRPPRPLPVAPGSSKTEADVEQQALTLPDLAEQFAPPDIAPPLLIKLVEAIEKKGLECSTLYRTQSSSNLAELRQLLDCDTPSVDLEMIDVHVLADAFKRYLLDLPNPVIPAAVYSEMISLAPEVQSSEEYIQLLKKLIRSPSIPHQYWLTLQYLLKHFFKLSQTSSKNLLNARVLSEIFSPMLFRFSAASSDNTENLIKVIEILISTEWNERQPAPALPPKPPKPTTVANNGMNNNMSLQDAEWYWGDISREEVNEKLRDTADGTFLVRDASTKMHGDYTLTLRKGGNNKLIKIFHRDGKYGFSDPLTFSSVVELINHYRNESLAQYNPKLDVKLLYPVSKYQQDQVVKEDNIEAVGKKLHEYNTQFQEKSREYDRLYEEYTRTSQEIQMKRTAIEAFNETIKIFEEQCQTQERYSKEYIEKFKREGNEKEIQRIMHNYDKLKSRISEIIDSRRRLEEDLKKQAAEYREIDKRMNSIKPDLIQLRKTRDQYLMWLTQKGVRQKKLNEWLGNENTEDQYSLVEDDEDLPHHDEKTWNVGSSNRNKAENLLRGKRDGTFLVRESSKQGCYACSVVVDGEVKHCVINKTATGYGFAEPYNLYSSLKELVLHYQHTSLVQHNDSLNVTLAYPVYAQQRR

| Compound | IC50 [nM] |
| --- | --- |
| COc1c(C(C)n2nc(C)c3c(N)ncnc32)cc(Cl)c(Cl)c1C1CN(C(C)=O)C1 (single isomer, unassigned) [Example 306, 1-{1-[3-(1-Acetylazetidin-3-yl)-4,5-dichloro-2-methoxyphenyl]ethyl}-3-methyl-1H-pyrazolo[3,4-d]pyrimidin-4-amine] | ≤ 10 |
| COc1c(C(C)n2nc(C)c3c(N)ncnc32)cc(Cl)c(C)c1-c1ccc(N(C)C)nc1 (single isomer, unassigned) [Example 185, 1-(1-(5-chloro-3-(6-(dimethylamino)pyridin-3-yl)-2-methoxy-4-methylphenyl)ethyl)-3-methyl-1H-pyrazolo[3,4-d]pyrimidin-4-amine] | ≤ 10 |
| COc1c(C(C)n2ccc(=O)c3c(N)ncnc32)cc(Cl)c(C)c1-c1cccc(S(=O)(=O)N(C)C)c1 (racemic) [Example 32, 3′-[1-(4-Amino-5-oxopyrido[2,3-d]pyrimidin-8(5H)-yl)ethyl]-5′-chloro-2′-methoxy-N,N,6′-trimethylbiphenyl-3-sulfonamide bis(trifluoroacetate)] | ≤ 10 |
| COc1c(C(C)n2nc(C)c3c(N)nccc32)cc(Cl)c(C)c1-c1ccc(C(=O)N(C)C)nc1 (racemic) [Example 41, 5-{3-[1-(4-Amino-3-methyl-1H-pyrazolo[4,3-c]pyridin-1-yl)ethyl]-5-chloro-2-methoxy-6-methylphenyl}-N,N-dimethylpyridine-2-carboxamide bis(trifluoroacetate)] | 50 to 200 |
| CNC(=O)c1ccc(-c2c(C)c(Cl)cc(C(C)n3nc(C)c4c(N)ncnc43)c2OC)cc1F (single isomer, unassigned) [Example 22, 3′-[1-(4-Amino-3-methyl-1H-pyrazolo[3,4-d]pyrimidin-1-yl)ethyl]-5′-chloro-3-fluoro-2′-methoxy-N,6′-dimethylbiphenyl-4-carboxamide trifluoroacetate] | ≤ 10 |
| CCOc1c(C(C)n2nc(C)c3c(N)ncnc32)cc(Cl)c(C#N)c1C1CN(CC(C)(C)O)C1 (centres unmarked) [Example 222, 4-[1-(4-Amino-3-methyl-1H-pyrazolo[3,4-d]pyrimidin-1-yl)ethyl]-6-chloro-3-ethoxy-2-[1-(2-hydroxy-2-methylpropyl)azetidin-3-yl]benzonitrile] | ≤ 10 |
| COc1c(C(C)n2nc(C)c3c(N)ncnc32)cc(Cl)c(C#N)c1C1CN(C(=O)C(C)C)C1 (single isomer, unassigned) [Example 283, 4-[1-(4-Amino-3-methyl-1H-pyrazolo[3,4-d]pyrimidin-1-yl)ethyl]-6-chloro-2-(1-isobutyrylazetidin-3-yl)-3-methoxybenzonitrile] | ≤ 10 |
| 2-(4-(3-(1-(4-Amino-3-methyl-1H-pyrazolo[3,4-d]pyrimidin-1-yl)ethyl)-5-chloro-2-ethoxy-6-methylphenyl)-1H-pyrazol-1-yl) acetamide [Example 203] | ≤ 10 |
| CCOc1c(C(C)n2nc(C)c3c(N)ncnc32)cc(Cl)c(C)c1-c1ccc(C(=O)NC)nc1 (single isomer, unassigned) [Example 199, 5-(3-(1-(4-amino-3-methyl-1H-pyrazolo[3,4-d]pyrimidin-1-yl)ethyl)-5-chloro-2-ethoxy-6-methylphenyl)-N-methylpicolinamide] | ≤ 10 |
| CCOc1c(C(C)n2nc(C)c3c(N)ncnc32)cc(Cl)c(C)c1C1CNC(=O)C1 (single isomer, unassigned) [Example 310, 4-{3-[1-(4-amino-3-methyl-1H-pyrazolo[3,4-d]pyrimidin-1-yl)ethyl]-5-chloro-2-ethoxy-6-methylphenyl}pyrrolidin-2-one] | ≤ 10 |
| COc1c(C(C)n2nc(C(F)F)c3c(N)ncnc32)cc(Cl)c(F)c1C1CN(C)C1 (centres unmarked) [Example 75, 1-{1-[5-Chloro-4-fluoro-2-methoxy-3-(1-methylazetidin-3-yl)phenyl]ethyl}-3-(difluoromethyl)-1H-pyrazolo[3,4-d]pyrimidin-4-amine] | ≤ 10 |
| CCNC(=O)N1CC(c2c(C#N)c(Cl)cc(C(C)n3nc(C)c4c(N)ncnc43)c2OC)C1 (single isomer, unassigned) [Example 295, 3-{3-[1-(4-Amino-3-methyl-1H-pyrazolo[3,4-d]pyrimidin-1-yl)ethyl]-5-chloro-6-cyano-2-methoxyphenyl}-N-ethylazetidine-1-carboxamide] | ≤ 10 |
| CCOc1c(C(C)n2nc(C)c3c(N)ncnc32)cc(C)c(C#N)c1C1CN(C(=O)C(C)(C)O)C1 (single isomer, unassigned) [Example 322, 4-[1-(4-amino-3-methyl-1H-pyrazolo[3,4-d]pyrimidin-1-yl)ethyl]-3-ethoxy-2-[1-(2-hydroxy-2-methylpropanoyl)azetidin-3-yl]-6-methylbenzonitrile] | ≤ 10 |
| CCOc1c(C(C)n2nc(C(F)F)c3c(N)ncnc32)cc(Cl)c(F)c1C1CN(CCO)C1 (racemic) [Example 152, 2-[3-(3-{-1-[4-Amino-3-(difluoromethyl)-1H-pyrazolo[3,4-d]pyrimidin-1-yl]ethyl}-5-chloro-2-ethoxy-6-fluorophenyl)azetidin-1-yl]ethanol] | ≤ 10 |
| COc1c(C(C)n2nc(C)c3c(N)ncnc32)cc(Cl)c(Cl)c1C1CN(CC(C)(C)O)C1 (single isomer, unassigned) [Example 303, 1-(3-{3-[1-(4-Amino-3-methyl-1H-pyrazolo[3,4-d]pyrimidin-1-yl)ethyl]-5,6-dichloro-2-methoxyphenyl}azetidin-1-yl)-2-methylpropan-2-ol] | ≤ 10 |
| CCOc1c(C(C)n2nc(C)c3c(N)ncnc32)cc(Cl)c(C#N)c1C1CNC(=O)C1 (single isomer, unassigned) [Example 350, 4-[1-(4-amino-3-methyl-1H-pyrazolo[3,4-d]pyrimidin-1-yl)ethyl]-6-chloro-3-ethoxy-2-(5-oxopyrrolidin-3-yl)benzonitrile] | > 500 |
| CCOc1c(C(C)n2nc(C)c3c(N)ncnc32)cc(C)c(C#N)c1-c1ccc(C(=O)N(C)C)nc1 (single isomer, unassigned) [314 (2nd peak), 5-{3-[1-(4-amino-3-methyl-1H-pyrazolo[3,4-d]pyrimidin-1-yl)ethyl]-6-cyano-2-ethoxy-5-methylphenyl}-N,N-dimethylpyridine-2-carboxamide] | ≤ 10 |
| CCOc1c(C(C)n2nc(C)c3c(N)ncnc32)cc(Cl)c(C#N)c1C1CNC(=O)C1 (single isomer, unassigned) [Example 351, 4-[1-(4-amino-3-methyl-1H-pyrazolo[3,4-d]pyrimidin-1-yl)ethyl]-6-chloro-3-ethoxy-2-(5-oxopyrrolidin-3-yl)benzonitrile] | 50 to 200 |
| CCOc1c(C(C)n2nc(C)c3c(N)ncnc32)cc(Cl)c(F)c1C1COC(=O)N1 (single isomer, unassigned) [Example 354, 4-{3-[1-(4-amino-3-methyl-1H-pyrazolo[3,4-d]pyrimidin-1-yl)ethyl]-5-chloro-2-ethoxy-6-fluorophenyl}-1,3-oxazolidin-2-one] | ≤ 10 |
| COc1c(C(C)n2nc(C)c3c(N)ncnc32)cc(Cl)c(C)c1-c1ccnc(N2CC(O)C2)c1 (single isomer, unassigned) [Example 187, 1-(4-(3-(1-(4-amino-3-methyl-1H-pyrazolo[3,4-d]pyrimidin-1-yl)ethyl)-5-chloro-2-methoxy-6-methylphenyl)pyridin-2-yl)azetidin-3-ol] | ≤ 10 |
